Data taken from patent US8476023B2, “Methods relating to aromatase inhibitor pharmacogenetics” (The Penn State Research Foundation, priority 2009, dated 2013).

Legend:
UGT1A10 = target: T1, UGT1A10 (Homo sapiens, UniProt Q9HAW8); assay: Glucuronidation assay, UGT1A10-overexpressing HEK293 cell homogenate; type: in vitro ADME; details: UGT1A10; up to 600 μM substrate
T1 construct: expressed in transfected cells; host or cells: HEK293
T1 sequence (Q9HAW8 26-530): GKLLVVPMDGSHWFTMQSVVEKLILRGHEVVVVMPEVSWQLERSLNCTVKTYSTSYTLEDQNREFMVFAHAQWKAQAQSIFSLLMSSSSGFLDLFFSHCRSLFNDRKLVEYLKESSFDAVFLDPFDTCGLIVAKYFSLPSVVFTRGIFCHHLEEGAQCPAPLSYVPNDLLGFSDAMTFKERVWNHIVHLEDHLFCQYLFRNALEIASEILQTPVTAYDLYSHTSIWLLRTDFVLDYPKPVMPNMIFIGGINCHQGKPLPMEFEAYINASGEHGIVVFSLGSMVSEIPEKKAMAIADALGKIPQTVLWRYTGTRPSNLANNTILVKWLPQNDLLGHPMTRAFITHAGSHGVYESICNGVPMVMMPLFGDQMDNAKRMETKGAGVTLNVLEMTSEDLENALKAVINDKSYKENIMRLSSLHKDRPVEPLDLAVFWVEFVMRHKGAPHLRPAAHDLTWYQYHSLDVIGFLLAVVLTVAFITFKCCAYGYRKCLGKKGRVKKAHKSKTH

[1] = tested on: human liver microsomes (HLM); assay: Rate of exemestane-17-O-glucuronide formation in a series of 110 HLM by UGT2B17 genotype; type: in vitro ADME; details: 9.4 μM 17-dihydroexemestane, p<0.001
UGT1A8 = target: T2, UGT1A8 (Homo sapiens, UniProt Q9HAW9); assay: Glucuronidation assay, UGT1A8-overexpressing HEK293 cell homogenate; type: in vitro ADME; details: up to 600 μM substrate
T2 construct: expressed in transfected cells; host or cells: HEK293
T2 sequence (Q9HAW9 26-530): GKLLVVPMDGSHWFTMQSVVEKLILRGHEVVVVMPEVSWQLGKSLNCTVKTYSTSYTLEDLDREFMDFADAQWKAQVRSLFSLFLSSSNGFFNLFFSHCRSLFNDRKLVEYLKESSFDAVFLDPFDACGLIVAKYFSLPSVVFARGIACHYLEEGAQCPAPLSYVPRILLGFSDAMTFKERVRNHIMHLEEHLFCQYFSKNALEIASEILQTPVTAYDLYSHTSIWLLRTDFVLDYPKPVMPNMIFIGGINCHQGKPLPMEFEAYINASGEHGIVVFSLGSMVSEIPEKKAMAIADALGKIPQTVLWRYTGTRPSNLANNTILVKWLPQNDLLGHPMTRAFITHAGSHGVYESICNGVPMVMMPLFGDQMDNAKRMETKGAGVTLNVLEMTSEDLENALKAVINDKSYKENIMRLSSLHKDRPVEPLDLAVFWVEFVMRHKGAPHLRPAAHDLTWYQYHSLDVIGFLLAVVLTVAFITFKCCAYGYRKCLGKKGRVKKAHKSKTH

[2] = tested on: human liver microsomes (HLM), UGT2B17 (*2/*2) genotype; assay: Kinetic analysis of glucuronidation by individual HLM from UGT2B17 (*2/*2) subjects; type: in vitro ADME; details: per mg HLM protein
[3] = as above; type: in vitro ADME, human; details: human, liver microsomes of UGT2B17 (*2/*2) subjects
UGT1A4 24Thr/48Leu = assay: Glucuronidation assay, UGT1A4 24Thr/48Leu-overexpressing HEK293 cell homogenate; type: in vitro ADME, human; details: human, pH 7.4
UGT1A4^24Thr/48Leu = assay: as above; type: in vitro ADME, human; details: normalized per μg UGT protein by Western blot
UGT1A4^24Pro/48Leu = target: T3, UGT1A4^24Pro/48Leu (Homo sapiens, UniProt P22310); assay: Glucuronidation assay, UGT1A4 24Pro/48Leu-overexpressing HEK293 cell homogenate; type: in vitro ADME; details: UGT 1A4 as worded in text; up to 600 μM substrate
T3 construct: expressed in transfected cells; host or cells: HEK293
T3 sequence (P22310 29-534): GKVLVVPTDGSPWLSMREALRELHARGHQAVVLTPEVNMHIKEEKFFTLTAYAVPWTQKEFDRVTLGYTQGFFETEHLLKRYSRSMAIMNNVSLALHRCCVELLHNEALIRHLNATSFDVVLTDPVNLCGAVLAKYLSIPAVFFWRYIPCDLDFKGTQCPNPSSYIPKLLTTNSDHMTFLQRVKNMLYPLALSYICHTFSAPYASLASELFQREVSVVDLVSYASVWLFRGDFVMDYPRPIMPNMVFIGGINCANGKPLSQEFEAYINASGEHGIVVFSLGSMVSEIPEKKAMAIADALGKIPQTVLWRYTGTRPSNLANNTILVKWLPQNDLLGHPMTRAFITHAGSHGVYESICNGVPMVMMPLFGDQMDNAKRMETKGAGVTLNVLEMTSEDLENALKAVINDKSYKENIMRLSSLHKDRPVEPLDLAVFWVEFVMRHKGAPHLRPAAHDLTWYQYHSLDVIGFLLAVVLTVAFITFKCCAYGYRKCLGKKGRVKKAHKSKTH

UGT2B17 = target: T4, UGT2B17 (Homo sapiens, UniProt O75795); assay: Glucuronidation assay, UGT2B17-overexpressing HEK293 cell homogenate; type: in vitro ADME; details: UGT2B17; up to 600 μM substrate
T4 construct: expressed in transfected cells; host or cells: HEK293
T4 sequence (O75795 24-530): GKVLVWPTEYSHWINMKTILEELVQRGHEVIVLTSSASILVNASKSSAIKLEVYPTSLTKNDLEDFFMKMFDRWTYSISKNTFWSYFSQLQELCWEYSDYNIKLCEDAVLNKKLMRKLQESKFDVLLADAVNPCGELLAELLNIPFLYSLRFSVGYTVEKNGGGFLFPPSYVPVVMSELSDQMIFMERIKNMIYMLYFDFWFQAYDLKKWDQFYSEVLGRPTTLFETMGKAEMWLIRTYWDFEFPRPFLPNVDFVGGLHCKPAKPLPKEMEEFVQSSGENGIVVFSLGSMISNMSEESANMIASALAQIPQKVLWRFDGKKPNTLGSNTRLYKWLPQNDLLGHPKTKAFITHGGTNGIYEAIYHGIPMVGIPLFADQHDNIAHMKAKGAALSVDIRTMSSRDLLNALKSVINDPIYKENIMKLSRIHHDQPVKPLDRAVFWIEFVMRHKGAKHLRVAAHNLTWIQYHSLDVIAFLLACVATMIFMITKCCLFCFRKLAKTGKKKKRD

[4] = Kinetic analysis of glucuronidation by individual HLM from UGT2B17 (*1/*1) subjects; type: in vitro ADME, human; details: human, liver microsomes of UGT2B17 (*1/*1) subjects
[5] = tested on: human liver microsomes (HLM), UGT2B17 (*1/*1) genotype; assay: as above; type: in vitro ADME; details: per mg HLM protein
[6] = tested on: UGTs 1A1, 1A3, 1A6, 1A7, 1A9, 2B4, 2B7, 2B10, 2B11, 2B15; assay: Screening of the other UGT-overexpressing HEK293 cell homogenates for glucuronidation activity; type: in vitro ADME, human; details: other UGTs screened; up to 1 mg of UGT overexpressing cell homogenate

For `C=C1C[C@@H]2[C@H](CC[C@]3(C)C(O)CC[C@@H]23)[C@@]2(C)C=CC(=O)C=C12` (stereo partly shown) [17-dihydroexemestane], the “glucuronidation activity in UGT screen” value (UGT1A10) was “detectable activity”, the “decrease in glucuronidation activity in HLM (*2/*2) compared with HLM (*1/*1)” value [1] was 14 fold and the “glucuronidation activity in UGT screen” value (UGT1A8) was “detectable activity”. The Vmax ([2]; HLM # 383, UGT2B17 (*2/*2)) was 17.0 pmol/min/mg, the Vmax ([2]; HLM # 416, UGT2B17 (*2/*2)) was 5.6 pmol/min/mg and the Vmax ([2]; HLM # 2174, UGT2B17 (*2/*2)) was 13.0 pmol/min/mg. The Vmax ([2]; HLM # 2175, UGT2B17 (*2/*2)) was 2.3 pmol/min/mg, the Vmax ([2]; HLM # 3873, UGT2B17 (*2/*2)) was 8.1 pmol/min/mg and the “Vmax, mean ± S.D.” value ([2]; mean of five UGT2B17 (*2/*2) HLM) was 9.2 ± 5.9 pmol/min/mg. For the same compound, the Km at 60 min ([3]; pH 7.4, HLM # 383, UGT2B17 (*2/*2), read-out: KM) was 9.3 µM, the Km at 60 min ([3]; pH 7.4, HLM # 416, UGT2B17 (*2/*2), read-out: KM) was 17 µM and the Km at 60 min ([3]; pH 7.4, HLM # 2174, UGT2B17 (*2/*2), read-out: KM) was 12.4 µM. For the same compound, the Km at 60 min ([3]; pH 7.4, HLM # 2175, UGT2B17 (*2/*2), read-out: KM) was 13 µM, the Km at 60 min ([3]; pH 7.4, HLM # 3873, UGT2B17 (*2/*2), read-out: KM) was 11 µM and the Km at 60 min ([3]; pH 7.4, mean of five UGT2B17 (*2/*2) HLM, read-out: KM, mean ± S.D.) was 12.8 ± 3 µM. The Km at 60 min (UGT1A4 24Thr/48Leu) was 28 ± 7.8 µM, the Vmax (UGT1A4^24Thr/48Leu) was 0.26 ± 0.04 pmol · min^−1 · μg UGT protein^−1 and the “glucuronidation activity in UGT screen” value (UGT1A4^24Pro/48Leu) was “detectable activity”. For the same compound, the “glucuronidation activity in UGT screen” value (UGT2B17) was “detectable activity”, the Km at 60 min ([4]; pH 7.4, HLM # 972, UGT2B17 (*1/*1), read-out: KM) was 10.6 µM and the Km at 60 min ([4]; pH 7.4, HLM # 1183, UGT2B17 (*1/*1), read-out: KM) was 7.2 µM. The Km at 60 min ([4]; pH 7.4, HLM # 1392, UGT2B17 (*1/*1), read-out: KM) was 7.1 µM, the Km at 60 min ([4]; pH 7.4, HLM # 2412, UGT2B17 (*1/*1), read-out: KM) was 6.7 µM and the Km at 60 min ([4]; pH 7.4, mean of five UGT2B17 (*1/*1) HLM, read-out: KM, mean ± S.D.) was 7.3 ± 2 µM. It also gave a Vmax ([5]; HLM # 972, UGT2B17 (*1/*1)) of 51.6 pmol/min/mg, a Vmax ([5]; HLM # 1183, UGT2B17 (*1/*1)) of 322 pmol/min/mg and a Vmax ([5]; HLM # 1392, UGT2B17 (*1/*1)) of 393 pmol/min/mg. The Vmax ([5]; HLM # 2167, UGT2B17 (*1/*1)) was 38.9 pmol/min/mg, the Vmax ([5]; HLM # 2412, UGT2B17 (*1/*1)) was 213 pmol/min/mg and the “Vmax, mean ± S.D.” value ([5]; mean of five UGT2B17 (*1/*1) HLM) was 204 ± 158 pmol/min/mg. For the same compound, the “glucuronidation activity in UGT screen” value [6] was “None of the other UGTs screened in assays described herein exhibited any glucuronidation activity”.
